Values joined by “and” are separate entries in the source; they are usually repeats but may differ in a detail not shown here. Identical values can stand only once. “Also recorded” adds a separate entry of the source. Counter-ions that a name gives are not always drawn.
Tests used:
[1] = system: B16 Melanoma; test: Antitumor activity in the B16 melanoma system (NCI screen); conditions: for % T/C (median lifetime) / cures (live animals day 60) / Survivors Day 4 / WT Diff, g (T - C): B16, Q01D × 09; for antitumor activity (in words): summary statements on in vivo screening, Table VI
Procedure: Another approach to make basic derivatives is based on the concept of taking an existing hydrolysable derivative and further modifying it to form a derivative that allows for stepwise hydrolysis.
Antitumor Activity in the B16 Melanoma System^a
^a Screening was carried out under the auspices of the National Cance
Institute. For detailed explanations of procedures and data, see
Instruction 14, Screening Data Summary Interpretation and Outline of
Current Screen, Drug Evaluation Branch, Developmental Therapeutics
Program, Division of Cancer Treatment, National Cancer Institute,
Bethesda, Maryland 20892.
^b Q01D × 09. Single dose for 9 days; given in milligrams per
kilogram body weight per injection.
^c Abbreviations: survivors day 4, live animals on the fourth day of
testing/total animal; wt diff, g (T - C), the difference in body weight i
grams between test and control animals; % T/C, the median lifetime of tes
animals divided by the median lifetime of control animals, times 100; for
the solid tumor system % T/C is 100 × (change in treated tumor wt 1
day 11 - day 0)/change in control tumor wt.) if the tumor grows or 100
× (change in treated tumor wt./initial treated tumor wt.) if the
tumor regresses; cures, number of live animals on the last day of
evaluation for the B16 melanoma system (day 60) or number of animals
without measurable tumor on day 11 for the MX1 mammary tumor system.

[2] = Aqueous solubility; conditions: water
[3] = 7 mg/kg (so in the source) per injection

## CC(=O)O[C@H]1C(=O)[C@@]2(C)[C@H]([C@H](OC(=O)c3ccccc3)[C@]3(O)C[C@H](OC(=O)[C@H](OC(=O)CCC(=O)O)[C@@H](NC(=O)c4ccccc4)c4ccccc4)C(C)=C1C3(C)C)[C@]1(OC(C)=O)CO[C@@H]1C[C@@H]2O [Example 1, 2' Succinyltaxol]
[1]; 2.5 mg/kg per injection
  % T/C (median lifetime): 119%
[1]; 5 mg/kg per injection
  % T/C (median lifetime): 154%
[1]; 10 mg/kg per injection
  % T/C (median lifetime): 159%
  cures (live animals day 60): 1
[1]; 20 mg/kg per injection
  % T/C (median lifetime): 154%
[1]; 40 mg/kg per injection
  % T/C (median lifetime): 185%
  cures (live animals day 60): 2
[2]
  aqueous solubility (in words): not water soluble

## CC(=O)O[C@H]1C(=O)[C@@]2(C)[C@H]([C@H](OC(=O)c3ccccc3)[C@]3(O)C[C@H](OC(=O)[C@H](OC(=O)CCCC(=O)O)[C@@H](NC(=O)c4ccccc4)c4ccccc4)C(C)=C1C3(C)C)[C@]1(OC(C)=O)CO[C@@H]1C[C@@H]2O [Example 17]
[1]; 6.13 mg/kg per injection
  % T/C (median lifetime): 159%
  Survivors Day 4: 8/8
  WT Diff, g (T - C): 0.4 g
[1]; 12.25 mg/kg per injection
  % T/C (median lifetime): 192%
  Survivors Day 4: 8/8
  WT Diff, g (T - C): 0.6 g
[1]; 24.5 mg/kg per injection
  % T/C (median lifetime): 225%
  Survivors Day 4: 7/7
  WT Diff, g (T - C): 1.5 g
[1]; 49 mg/kg per injection
  % T/C (median lifetime): 339%
  Survivors Day 4: 7/7
  WT Diff, g (T - C): 0.4 g
[1]
  antitumor activity (in words): very active and potent; also recorded: improved biological properties as compared to the corresponding succinates of Examples 12 and 8

## CC(=O)O[C@H]1C(=O)[C@]2(C)[C@@H](OC(=O)CCC(=O)O)C[C@H]3OC[C@@]3(OC(C)=O)[C@H]2[C@H](OC(=O)c2ccccc2)[C@]2(O)C[C@H](OC(=O)[C@H](OC(=O)CCC(=O)O)[C@@H](NC(=O)c3ccccc3)c3ccccc3)C(C)=C1C2(C)C [Example 2, Na-Salt]
[1]; 2.75 mg/kg per injection, listed as 2, Na-Salt
  % T/C (median lifetime): 120%
[1]; 5.5 mg/kg per injection, listed as 2, Na-Salt
  % T/C (median lifetime): 114%
[1]; 11 mg/kg per injection
  % T/C (median lifetime): 149%
[1]; 22 mg/kg per injection, listed as 2, Na-Salt
  % T/C (median lifetime): 109%
[1]; 44 mg/kg per injection, listed as 2, Na-Salt
  % T/C (median lifetime): 166%
[1]; listed as 2, sodium salt
  antitumor activity (in words): improved antitumor activity as compared to the free acid; also recorded: considerably less active than the corresponding 2'-mono derivative of Example 1 and its salts
[2]; aqueous solubility
  solubility: ~3 mg/mL

## CC(=O)O[C@H]1C(=O)[C@@]2(C)[C@H]([C@H](OC(=O)c3ccccc3)[C@]3(O)C[C@H](OC(=O)[C@H](OC(=O)CCCC(=O)NCCCN(C)C)[C@@H](NC(=O)c4ccccc4)c4ccccc4)C(C)=C1C3(C)C)[C@]1(OC(C)=O)CO[C@@H]1C[C@@H]2O [Example 25, Aminoamide Derivative of 2'-Glutaryltaxol]
[1]
  antitumor activity (in words): extremely potent and active

## CC(=O)O[C@H]1C(=O)[C@@]2(C)[C@H]([C@H](OC(=O)c3ccccc3)[C@]3(O)C[C@H](OC(=O)[C@H](OC(=O)CCC(=O)O)[C@@H](NC(=O)c4ccccc4)c4ccccc4)C(C)=C1C3(C)C)[C@]1(OC(C)=O)CO[C@@H]1C[C@@H]2O [Example 11]
[1]; 6.25 mg/kg per injection
  % T/C (median lifetime): 125%
[1]; 12.5 mg/kg per injection
  % T/C (median lifetime): 134%
[1]; 25 mg/kg per injection
  % T/C (median lifetime): 176%
[1]; 50 mg/kg per injection
  % T/C (median lifetime): 241%
[1]
  antitumor activity (in words): much more active than the compound of Example 12
[2]
  aqueous solubility: about 1%
  aqueous solubility (in words): greatly improved aqueous solubility; also recorded: although still soluble, the solutions were not clear and became very viscous

## CC(=O)O[C@H]1C(=O)[C@@]2(C)[C@H]([C@H](OC(=O)c3ccccc3)[C@]3(O)C[C@H](OC(=O)[C@H](OC(=O)CCC(=O)O)[C@@H](NC(=O)c4ccccc4)c4ccccc4)C(C)=C1C3(C)C)[C@]1(OC(C)=O)CO[C@@H]1C[C@@H]2O [Example 8, 2'-Succinyltaxol, Triethanolamine Salt]
[1]; 6.75 mg/kg per injection
  % T/C (median lifetime): 230%
  cures (live animals day 60): 1
[1]; [3]
  % T/C (median lifetime): 314%
  cures (live animals day 60): 3
[1]; 13.5 mg/kg per injection
  % T/C (median lifetime): 264%
  cures (live animals day 60): 1
[1]; 54 mg/kg per injection
  % T/C (median lifetime): TOXIC
[1]
  antitumor activity (in words): much more active than the compound of Example 12; also recorded: especially active and potent
[2]
  aqueous solubility: about 1%
  aqueous solubility (in words): greatly improved aqueous solubility; also recorded: although still soluble, the solutions were not clear and became very viscous

## CC(=O)O[C@H]1C(=O)[C@@]2(C)[C@H]([C@H](OC(=O)c3ccccc3)[C@]3(O)C[C@H](OC(=O)[C@H](OC(=O)CCC(=O)O)[C@@H](NC(=O)c4ccccc4)c4ccccc4)C(C)=C1C3(C)C)[C@]1(OC(C)=O)CO[C@@H]1C[C@@H]2O [Example 12]
[1]; 1.25 mg/kg per injection
  % T/C (median lifetime): 111%
[1]; 2.5 mg/kg per injection
  % T/C (median lifetime): 159% and 125%
  cures (live animals day 60): 1
[1]; 5 mg/kg per injection
  % T/C (median lifetime): 166% and 131%
[1]; 10 mg/kg per injection
  % T/C (median lifetime): 183% and 160%
  cures (live animals day 60): 1
[1]; 20 mg/kg per injection
  % T/C (median lifetime): 201% and 160%
[1]; 40 mg/kg per injection
  % T/C (median lifetime): 218% and 177%
  cures (live animals day 60): 2
[1]; listed as 1, sodium salt
  antitumor activity (in words): improved antitumor activity as compared to the free acid
[2]; listed as 1, sodium salt
  aqueous solubility: about 0.1%

## CC(=O)O[C@H]1C(=O)[C@@]2(C)[C@H]([C@H](OC(=O)c3ccccc3)[C@]3(O)C[C@H](OC(=O)[C@H](OC(=O)CCCC(=O)O)[C@@H](NC(=O)c4ccccc4)c4ccccc4)C(C)=C1C3(C)C)[C@]1(OC(C)=O)CO[C@@H]1C[C@@H]2O [Example 16]
[1]; 6.63 mg/kg per injection
  % T/C (median lifetime): 207%
  Survivors Day 4: 8/8
  WT Diff, g (T - C): 0.4 g
[1]; 13.25 mg/kg per injection
  % T/C (median lifetime): 291%
  Survivors Day 4: 8/8
  WT Diff, g (T - C): 0.4 g
[1]; 26.5 mg/kg per injection
  % T/C (median lifetime): 239%
  Survivors Day 4: 8/8
  WT Diff, g (T - C): 0.4 g
  cures (live animals day 60): 2
[1]; 53 mg/kg per injection
  % T/C (median lifetime): 300%
  Survivors Day 4: 8/8
  WT Diff, g (T - C): 0.4 g
  cures (live animals day 60): 1
[1]
  antitumor activity (in words): very active and potent; also recorded: improved biological properties as compared to the corresponding succinates of Examples 12 and 8

## CC(=O)O[C@H]1C(=O)[C@]2(C)[C@@H](OC(=O)CCC(=O)O)C[C@H]3OC[C@@]3(OC(C)=O)[C@H]2[C@H](OC(=O)c2ccccc2)[C@]2(O)C[C@H](OC(=O)[C@H](OC(=O)CCC(=O)O)[C@@H](NC(=O)c3ccccc3)c3ccccc3)C(C)=C1C2(C)C [Example 2, 2'7-Disuccinyltaxol]
[1]; 1 mg/kg (so in the source) per injection
  % T/C (median lifetime): 124%
[1]; 2.75 mg/kg per injection
  % T/C (median lifetime): 109%
[1]; 5.5 mg/kg per injection
  % T/C (median lifetime): 113%
[1]; 22 mg/kg per injection
  % T/C (median lifetime): 105%
[1]; 44 mg/kg per injection
  % T/C (median lifetime): 114%
[1]
  antitumor activity (in words): considerably less active than the corresponding 2'-mono derivative of Example 1 and its salts
[2]
  aqueous solubility (in words): not water soluble

Source: patent US5157049A, “Method of treating cancers sensitive to treatment with water soluble derivatives of taxol” (The United States of America as represented by the …, priority 1991, dated 1992)
